According to ChEMBL document CHEMBL5038651, “Design, Synthesis, and Biological Evaluation of 2-((4-Bisarylmethyl-piperazin-1-yl)methyl)benzonitrile Derivatives as HCV Entry Inhibitors” (J Med Chem, 2022):
Calls of active or inactive are those of the source. The rule behind the calls is not given here.

Key:
[1] = Cytotoxicity against human Huh7.5 cells assessed as reduction in cell viability incubated for 96 hrs by MTT assay; type: toxicity, cell-based, Huh-7.5; settings: Huh7.5 cells
Hepatitis C virus [2] = assay: Antiviral activity against HCV infected in human Huh7.5 cells incubated for 72 hrs by in-cell western assay; type: functional, organism-based, Hepacivirus hominis; settings: Huh7.5, 72 h
[3] = Selectivity index, ratio of CC50 for cytotoxicity against human Huh7.5.1 cells to EC50 for antiviral activity against HCV infected in human Huh7.5.1 cells; type: toxicity, cell-based; settings: read-out: Ratio CC50/EC50
[4] = MRT in Sprague-Dawley rat at 15 mg/kg, po administered as single dose measured upto 24 hrs by LC-MS/MS analysis; type: ADME, organism-based; settings: in vivo
[5] = AUC (0 to infinity) in Sprague-Dawley rat at 15 mg/kg, po administered as single dose measured upto 24 hrs by LC-MS/MS analysis; type: ADME, organism-based; design: route oral, dose 15 mg/kg, time <=24; settings: in vivo
Hepatitis C virus [6] = assay: Antiviral activity against HCVcc infected in human Huh7.5 cells assessed as inhibition of viral replication; type: functional, organism-based, Hepacivirus hominis
Hepatitis C virus [7] = assay: Antiviral activity against HCV infected in human Huh7.5 cells carrying HCV subgenomic replicons assessed as inhibition of viral replication; type: functional, organism-based, Hepacivirus hominis
[8] = Cytotoxicity against human Huh7.5 cells infected with HCVcc assessed as reduction in cell viability incubated for 96 hrs by MTT assay; type: toxicity, cell-based, Huh-7.5
[9] = Cytotoxicity against human Huh7.5 cells carrying HCV subgenomic replicons assessed as reduction in cell viability incubated for 96 hrs by MTT assay; type: toxicity, cell-based, Huh-7.5
[10] = Half life in Sprague-Dawley rat at 15 mg/kg, po administered as single dose measured upto 24 hrs by LC-MS/MS analysis; type: ADME, organism-based; settings: in vivo
[11] = Tmax in Sprague-Dawley rat at 15 mg/kg, po administered as single dose measured upto 24 hrs by LC-MS/MS analysis; type: ADME, organism-based; settings: in vivo
[12] = Cmax in Sprague-Dawley rat at 15 mg/kg, po administered as single dose measured upto 24 hrs by LC-MS/MS analysis; type: ADME, organism-based; design: route oral, dose 15 mg/kg, time <=24; settings: in vivo
[13] = Plasma concentration in Sprague-Dawley rat at 15 mg/kg, po administered as single dose measured up to 24 hrs by LC-MS/MS analysis; type: ADME, organism-based
Hepacivirus hominis = assay: Binding affinity to HCV E1 protein at 12.5 to 200 uM by SPR analysis; settings: dose 12.5-200 µM
[14] = target: Histamine H1 receptor (Homo sapiens) (UniProt P35367); assay: Antagonist activity against H1 receptor (unknown origin) expressed in HEK cells at 1 uM relative to control; type: functional, cell-based
Chain of Histamine H1 receptor (Homo sapiens) (P35367 whole entry): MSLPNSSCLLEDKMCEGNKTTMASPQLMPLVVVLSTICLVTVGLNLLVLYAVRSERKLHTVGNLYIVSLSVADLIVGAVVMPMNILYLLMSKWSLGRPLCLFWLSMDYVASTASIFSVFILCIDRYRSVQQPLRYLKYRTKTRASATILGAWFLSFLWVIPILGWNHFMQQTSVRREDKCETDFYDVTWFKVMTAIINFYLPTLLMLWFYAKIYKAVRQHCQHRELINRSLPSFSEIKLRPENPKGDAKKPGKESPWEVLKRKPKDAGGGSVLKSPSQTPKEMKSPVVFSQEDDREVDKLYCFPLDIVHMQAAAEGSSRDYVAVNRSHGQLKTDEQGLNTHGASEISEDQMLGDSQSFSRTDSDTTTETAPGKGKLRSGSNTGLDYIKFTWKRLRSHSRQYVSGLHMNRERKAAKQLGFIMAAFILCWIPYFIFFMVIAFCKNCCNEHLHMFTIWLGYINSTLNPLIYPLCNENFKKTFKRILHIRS

Hepatitis C virus [15] = assay: Antiviral activity against HCV infected in human Huh7.5 cells assessed as reduction in viral RNA level preincubated for 2 hrs prior to viral infection and measured after 72 hrs by RT-qPCR analysis; type: functional, organism-based; settings: Hepacivirus hominis, time 74.0 hrs
Hepatitis C virus [16] = assay: Antiviral activity against HCV infected in human Huh7.5 cells assessed as reduction in viral RNA level measured after 72 hrs by RT-qPCR analysis; type: functional, organism-based; settings: Hepacivirus hominis
Hepatitis C virus [17] = assay: Antiviral activity against HCV infected in human Huh7.5 cells assessed as reduction in HCV core protein expression measured after 72 hrs by Western blotting analysis; type: functional, organism-based; settings: Hepacivirus hominis
Hepatitis C virus [18] = assay: Antiviral activity against HCV infected in human Huh7.5 cells assessed as reduction in HCV core protein expression preincubated for 2 hrs followed by viral infection and measured after 72 hrs by Western blotting analysis; type: functional, organism-based; settings: Hepacivirus hominis, time 74.0 hrs
Hepatitis C virus [19] = assay: Antiviral activity against HCV infected in human Huh7.5 cells assessed as reduction in HCV core protein expression pre-infected with virus for 2 hrs followed by compound addition and measured after 72 hrs by Western blotting analysis; type: functional, organism-based; settings: Hepacivirus hominis
Hepatitis C virus [20] = assay: Antiviral activity against HCV infected in human Huh7.5 cells carrying HCV subgenomic replicons assessed as inhibition of viral replication at 1.4 uM; type: functional, organism-based; settings: Hepacivirus hominis
Hepatitis C virus [21] = assay: Antiviral activity against HCV infected in human Huh7.5 cells assessed as reduction in HCV core protein expression at 6.4 nM incubated for 72 hrs by in-cell western assay; type: functional, organism-based; settings: Hepacivirus hominis
Hepatitis C virus [22] = assay: Antiviral activity against HCV infected in human Huh7.5 cells assessed as reduction in viral RNA level pre-infected with virus for 2 hrs followed by compound addition and measured after 72 hrs by RT-qPCR analysis; type: functional, organism-based; settings: Hepacivirus hominis
[23] = Selectivity index, ratio of CC50 for cytotoxicity against human Huh7.5 cells infected with HCVcc to EC50 for antiviral activity against HCVcc infected in human Huh7.5 cells; type: toxicity, cell-based; settings: read-out: Ratio CC50/EC50

Row | EC50 (Hepatitis C virus [2]) [µM] | SMILES | CC50 at 96 h [1] [µM] | selectivity ratio [3] | other results
1 | 0.003 | CN(C)CCN(C)c1ccc(C#N)c(CN2CCN(C(c3ccc(Cl)cc3)c3ccc(Cl)cc3)CC2)c1 | 3.33 | – | –
2 | 0.095 | CNCCN(C)CCN(C)c1ccc(C#N)c(CN2CCN(C(c3ccccc3)c3ccc(Cl)cc3)CC2)c1 (centres undefined) | 4.71 | 49 | –
3 | 0.016 | CN(C)CCN(C)c1ccc(C#N)c(CN2CCN([C@@H](c3ccccc3)c3ccc(Cl)cc3)CC2)c1 | 8.78 | 549 | –
4 | 0.004 | CN(C)CCN(C)c1ccc(C#N)c(CN2CCN(C(c3ccccc3)c3ccc(Cl)cc3)CC2)c1 (centres undefined) | 5.66 | 1410 | Activity [14]: inactive; Activity (Hepatitis C virus [15]): inactive; Activity (Hepatitis C virus [16]): inactive; Activity (Hepatitis C virus [17]): Active; Activity (Hepatitis C virus [18]): inactive; Activity (Hepatitis C virus [19]): Active; Activity (Hepatitis C virus [20]): inactive; selectivity ratio [23]: 649; Activity (Hepatitis C virus [21]): Active; Activity (Hepatitis C virus [22]): Active
5 | 0.271 | CN(C)CCN(C)c1ccc(C(F)(F)F)c(CN2CCN(C(c3ccccc3)c3ccc(Cl)cc3)CC2)c1 (centres undefined) | 6.96 | 26 | –
6 | 0.01 | CN(C)CCN(C)c1ccc(C#N)c(CN2CCN([C@H](c3ccccc3)c3ccc(Cl)cc3)CC2)c1 | 8.23 | 823 | –

The remaining lines, values behind:

Row | SMILES | EC50 (Hepatitis C virus [2]) [µM] | CC50 at 96 h [1] [µM] | selectivity ratio [3] | other results
7 | CN1CCCN(c2ccc(C#N)c(CN3CCN([C@@H](c4ccccc4)c4ccc(Cl)cc4)CC3)c2)CC1 | 0.055 | > 20 | > 364 | –
8 | CN(C)CCN(C)c1ccc(C#N)c(CN2CCN(Cc3ccc(F)cc3)CC2)c1 | 3.56 | 52.7 | 14 | –
9 | N#Cc1ccc(NCCCn2ccnc2)cc1CN1CCN(C(c2ccc(Cl)cc2)c2ccc(Cl)cc2)CC1 | 0.11 | > 20 | > 182 | –
10 | CN1CCCN(c2ccc(C#N)c(CN3CCN(C(c4ccccc4)c4ccc(Cl)cc4)CC3)c2)CC1 (centres undefined) | 0.004 | 7.34 | 1930 | MRT [4]: 8.59 h; AUC(0-inf) [5]: 848 ng·h/mL; EC50 (Hepatitis C virus [6]): 0.00333 µM; EC50 (Hepatitis C virus [7]): > 1.6 µM; CC50 at 96 h [8]: 3.72 µM; CC50 at 96 h [9]: 5.22 µM; half-life [10]: 4.87 h; Tmax [11]: 5.33 h; Cmax [12]: 97.9 ng/mL; concentration at 24 h [13]: 6.06 ng/mL; Activity (Hepacivirus hominis): Active; Activity [14]: inactive; Activity (Hepatitis C virus [15]): inactive; Activity (Hepatitis C virus [16]): inactive; Activity (Hepatitis C virus [17]): Active; Activity (Hepatitis C virus [18]): inactive; Activity (Hepatitis C virus [19]): Active; Activity (Hepatitis C virus [20]): inactive; Activity (Hepatitis C virus [21]): Active; Activity (Hepatitis C virus [22]): Active
11 | CN1CCCN(c2ccc(C(F)(F)F)c(CN3CCN(c4ccc(Cl)cc4)CC3)c2)CC1 | 0.003 | 2.56 | 855 | –
12 | CN1CCCN(c2ccc(C#N)c(CN3CCN(c4ccc(Cl)cc4)CC3)c2)CC1 | 0.11 | 9.59 | 87 | –
13 | CN1CCCN(c2ccc(C#N)c(CN3CCN(C(=O)c4ccc(Cl)cc4)CC3)c2)CC1 | > 4 | 9.7 | – | –
14 | CN(C)CCN(C)c1ccc(C#N)c(CN2CCN(c3ccc(C(F)(F)F)cc3)CC2)c1 | 0.013 | 13.2 | 1010 | –
15 | CN(C)CCN(C)c1ccc(C#N)c(CN2CCN(C(=O)c3ccc(Cl)cc3)CC2)c1 | 12.2 | 10.1 | – | –
16 | CN(C)CCN(C)c1ccc(C#N)c(CN2CCN(C(c3ccc(F)cc3)c3ccc(F)cc3)CC2)c1 | 0.008 | 7.81 | 976 | Activity (Hepacivirus hominis): Active
17 | N#Cc1ccc(NCCCn2ccnc2)cc1CN1CCN(C(c2ccccc2)c2ccc(Cl)cc2)CC1 (centres undefined) | 0.22 | 5.38 | 24 | –
